The text below walks through data of EP4678629A1, “IONIZABLE LIPID MOLECULE, PREPARATION METHOD THEREFOR AND USE THEREOF” (Maxirna (Shanghai) Pharmaceutical Co., Ltd., priority 2023, dated 2024).

Usually viability stands for the share of living cells, or the viability signal relative to a control.

The subject of one data set is DC2.4 cells. Put plainly: In vitro transfection of cells with eGFP-mRNA lipid nanoparticle (LNP preparation), fluorescence imaging and flow cytometry. The class given is cell-based, mouse. The settings on record: eGFP positivity rate, DC2.4 cells, 200 ng of mRNA per well, after 24 hours. A digest of the protocol: (§1)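 Mouse bone marrow-derived DC2.4 dendritic cells seeded at 2 × 10^5 cells/well in DMEM with 10% FBS, transfected with eGFP-mRNA LNPs the next day at 37 °C, 5% CO2. After 24 hours, viability, eGFP-positive rate and mean fluorescence intensity read by fluorescence imaging and flow cytometry.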
(Flow cytometry measures light scatter and fluorescence of single cells or particles in a stream.)

Test in data set [1]: as above
The class given is cell-based, mouse. To be noted: mouse, dc2.4 cells, 200 ng of mRNA per well, after 24 hours; read-out: Cell viability, %. The method, boiled down:
as §1

A short description of data set [2]: Size and polydispersity index (PDI) of the lipid nanoparticle by dynamic light scattering. The class given is physicochemical. The settings on record: LNP encapsulating eGFP mRNA, ionizable lipid/DOPE/cholesterol/DMG-PEG2000 50/10/48.25/1.25 mol%, N/P 12; for Particle size: in nm (unit assumed). The method, boiled down:
(§2)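 LNPs were made by microfluidic mixing of ionizable lipid/DOPE/cholesterol/DMG-PEG2000 (50/10/48.25/1.25 mol%) in ethanol with eGFP mRNA in 20 mM citrate pH 6.1, N/P 12, then ultrafiltered into DPBS and 0.2 µm filtered. Size and PDI by DLS at 173° backscatter; encapsulation by Ribogreen.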

The nature of data set [3]: Encapsulation efficiency of the lipid nanoparticle (eGFP mRNA) by Ribogreen method. The class given is physicochemical. The settings on record: LNP encapsulating eGFP mRNA, ionizable lipid/DOPE/cholesterol/DMG-PEG2000 50/10/48.25/1.25 mol%, N/P 12. A digest of the protocol:
as §2

Regarding `CCCCCCCCCCCCCOC(=O)CCCCCCN(CCO)CCCN(CCCCCCC(=O)OCCCCCCCCCCCCC)CCCCCCC(=O)OCCCCCCCCCCCCC` [Example 33], in the data set on DC2.4 cells, the “Positive rate, %” value was 95.18%. Besides, the viability at 24 h in data set [1] turned out to be 96.4%. The PDI in data set [2] amounted to 0.13. In addition, in data set [3], the “Encapsulation rate, %” value was determined as 98.96%.
Take `CCCCCCCCCCCCCOC(=O)CCCCCCN(CCCO)CCCN(CCCCCCC(=O)OCCCCCCCCCCCCC)CCCCCCC(=O)OCCCCCCCCCCCCC` [Example 34]: the “Positive rate, %” value with DC2.4 cells is 93.19%. Also, in data set [1], the viability at 24 h came out at 95%. Besides, in data set [2], the PDI is recorded as 0.16 and the Particle size amounted to 82.74. Further, in data set [3], the “Encapsulation rate, %” value is 99.39%.
For `CCCCCCCCCCCCCOC(=O)CCCCCCN(CCCCO)CCCN(CCCCCCC(=O)OCCCCCCCCCCCCC)CCCCCCC(=O)OCCCCCCCCCCCCC` [Example 35], in that order: 98.59%, 97.2%, 0.12, 92.18 and 99.50%.
As to `CCCCCCCCCCCOC(=O)CCCCCCN(CCCO)CCCN(CCCCCCC(=O)OCCCCCCCCCCC)CCCCCCC(=O)OCCCCCCCCCCC` [Example 36], the “Positive rate, %” value in the data set on DC2.4 cells came out at 93.6%. Moreover, the viability at 24 h in data set [1] was 94.2%. Also, in data set [2], the PDI was 0.16 and the Particle size stood at 89.30. Besides, the “Encapsulation rate, %” value in data set [3] worked out at 99.39%.
As for `CCCCCCCCCCCOC(=O)CCCCCCN(CCCCO)CCCN(CCCCCCC(=O)OCCCCCCCCCCC)CCCCCCC(=O)OCCCCCCCCCCC` [Example 37], in the data set on DC2.4 cells, the “Positive rate, %” value came out at 89.37%. For the same compound, the viability at 24 h in data set [1] was 96.6%. In data set [2], this compound came in with a PDI of 0.15 and a Particle size of 77.57. Moreover, the “Encapsulation rate, %” value in data set [3] amounted to 99.26%.
With `CCCCCCCCCCCCCOC(=O)CCCCN(CCO)CCCN(CCCCC(=O)OCCCCCCCCCCCCC)CCCCC(=O)OCCCCCCCCCCCCC` [Example 39, Ditridecyl 5,5'-((3-((2-hydroxyethyl)(5-oxo-5-(tridecyloxy)pentyl)amino)propyl)azadiyl)dipentanoate], the “Positive rate, %” value with DC2.4 cells stood at 91.26%. Also, the viability at 24 h in data set [1] is 96.9%. In data set [2], this compound displayed a PDI of 0.13 and a Particle size of 89.31. Moreover, the “Encapsulation rate, %” value in data set [3] worked out at 97.58%.
For `CCCCCCCCCCCCCOC(=O)CCCCN(CCCO)CCCN(CCCCC(=O)OCCCCCCCCCCCCC)CCCCC(=O)OCCCCCCCCCCCCC` [Example 40], the “Positive rate, %” value with DC2.4 cells was determined as 99.14%. Further, the viability at 24 h in data set [1] was determined as 97.7%. In addition, in data set [2], the PDI came to 0.14 and the Particle size was 63.23. Further, the “Encapsulation rate, %” value in data set [3] is listed as 99.29%.
As for `CCCCCCCCCCCCCOC(=O)CCCCN(CCCCO)CCCN(CCCCC(=O)OCCCCCCCCCCCCC)CCCCC(=O)OCCCCCCCCCCCCC` [Example 41, Ditridecyl 5,5'-((3-((4-hydroxybutyl)(5-oxo-5-(tridecyloxy)pentyl)amino)propyl)azadiyl)dipentanoate], the “Positive rate, %” value with DC2.4 cells is reported as 96.42%. In addition, in data set [1], the viability at 24 h came to 97.2%. In data set [2], this compound displayed a PDI of 0.13 and a Particle size of 71.17. Moreover, the “Encapsulation rate, %” value in data set [3] was found to be 96.67%.
In the case of `CCCCCCCCCCCOC(=O)CCCCN(CCCO)CCCN(CCCCC(=O)OCCCCCCCCCCC)CCCCC(=O)OCCCCCCCCCCC` [Example 42, Diundecyl 5,5'-((3-((3-hydroxypropyl)(5-oxo-5-(undecyloxy)pentyl)amino)propyl)azadiyl)dipentanoate], in the data set on DC2.4 cells, the “Positive rate, %” value is reported as 96.69%. Moreover, the viability at 24 h in data set [1] was determined as 94.1%. In data set [2], this compound registered a PDI of 0.11 and a Particle size of 98.73. The “Encapsulation rate, %” value in data set [3] is recorded as 98.13%.
With `CCCCCCCCCCCOC(=O)CCCCN(CCCCO)CCCN(CCCCC(=O)OCCCCCCCCCCC)CCCCC(=O)OCCCCCCCCCCC` [Example 43, Diundecyl 5,5'-((3-((4-hydroxybutyl)(5-oxo-5-(undecyloxy)pentyl)amino)propyl)azahexyl)dipentanoate], the “Positive rate, %” value in the data set on DC2.4 cells is recorded as 97.48%. Moreover, the viability at 24 h in data set [1] came out at 88.2%. The compound also had a PDI in data set [2] of 0.14. For the same compound, the “Encapsulation rate, %” value in data set [3] is recorded as 87.08%.
In the same order, the values of `CCCCCCCCCCCCOC(=O)CCCCCN(CCO)CCCN(CCCCCC(=O)OCCCCCCCCCCCC)CCCCCC(=O)OCCCCCCCCCCCC` [Example 44, Didodecyl 6,6'-((3-((6-(dodecoxy)-6-oxohexyl)(2-hydroxyethyl)amino)propyl)azahexyl)dihexanoate] are 94.2%, 91.9%, 0.20 and 99.38%.
Turning to `CCCCCCCCCCCCOC(=O)CCCCCN(CCCO)CCCN(CCCCCC(=O)OCCCCCCCCCCCC)CCCCCC(=O)OCCCCCCCCCCCC` [Example 45, Didodecyl 6,6'-((3-((6-(dodecoxy)-6-oxohexyl)(3-hydroxypropyl)amino)propyl)azahexyl)dihexanoate], the “Positive rate, %” value in the data set on DC2.4 cells is listed as 95.29%. The viability at 24 h in data set [1] was found to be 95%. In data set [2], this compound registered a PDI of 0.20 and a Particle size of 84.66. The “Encapsulation rate, %” value in data set [3] worked out at 99.60%.
In the same order, the values of `CCCCCCCCCCCCOC(=O)CCCCCN(CCCCO)CCCN(CCCCCC(=O)OCCCCCCCCCCCC)CCCCCC(=O)OCCCCCCCCCCCC` [Example 46, Didodecyl 6,6'-((3-((6-(dodecyloxy)-6-oxohexyl)(4-hydroxybutyl)amino)propyl)azanediyl)dihexanoate] are 96.64%, 97.4%, 0.22, 72.75 and 99.86%.
On to `CCCCCCCCCCCCOC(=O)CCCCCCN(CCO)CCCN(CCCCCCC(=O)OCCCCCCCCCCCC)CCCCCCC(=O)OCCCCCCCCCCCC` [Example 47, Didodecyl 7,7'-((3-((7-(dodecyloxy)-7-oxoheptyl)(2-hydroxyethyl)amino)propyl)azanediyl)diheptanoate], for which the “Positive rate, %” value in the data set on DC2.4 cells was determined as 97.39%. Moreover, in data set [1], the viability at 24 h came to 88.5%. In data set [2], the PDI worked out at 0.26 and the Particle size is reported as 83.85. For the same compound, the “Encapsulation rate, %” value in data set [3] is on record as 99.77%.
On to `CCCCCCCCCCCCOC(=O)CCCCCCN(CCCO)CCCN(CCCCCCC(=O)OCCCCCCCCCCCC)CCCCCCC(=O)OCCCCCCCCCCCC` [Example 48, Didodecyl 7,7'-((3-((7-(dodecyloxy)-7-oxoheptyl)(3-hydroxypropyl)amino)propyl)azanediyl)diheptanoate], for which the “Positive rate, %” value in the data set with DC2.4 cells is 97.26%. Further, the viability at 24 h in data set [1] turned out to be 94%. In addition, in data set [2], the PDI was 0.16 and the Particle size amounted to 76.18. Also, the “Encapsulation rate, %” value in data set [3] is recorded as 99.52%.
Regarding `CCCCCCCCCCCCOC(=O)CCCCCCN(CCCCO)CCCN(CCCCCCC(=O)OCCCCCCCCCCCC)CCCCCCC(=O)OCCCCCCCCCCCC` [Example 49, Didodecyl 7,7'-((3-((7-(dodecyloxy)-7-oxoheptyl)(4-hydroxybutyl)amino)propyl)azanediyl)diheptanoate], in the data set on DC2.4 cells, the “Positive rate, %” value is on record as 97.38%. Moreover, in data set [1], the viability at 24 h turned out to be 91.6%. In addition, in data set [2], the PDI was 0.15 and the Particle size worked out at 74.58. Also, the “Encapsulation rate, %” value in data set [3] turned out to be 99.79%.
